Key:
[1] = tested on: non-mucoid P. aeruginosa strains from clinically relevant O-antigen serotypes; assay: OPK assay, non-mucoid clinical isolates; assay type: cell-based, Pseudomonas aeruginosa; settings: FIG. 2C
Protocol: (§1) This example describes the evaluation of prioritized human IgG1 antibodies to promote OPK of P. aeruginosa. […] OPK assays were performed as described in (DiGiandomenico, A., et al., Infect Immun 72, 7012-7021 (2004)), with modifications. Briefly, assays were performed in 96-well plates using 0.025 ml of each OPK component; P. aeruginosa strains; diluted baby rabbit serum; differentiated HL-60 cells; and monoclonal antibody. In some OPK assays, luminescent P. aeruginosa strains, which were constructed as described (Choi, K. H., et al., Nat Methods 2, 443-448 (2005)), were used. Luminescent OPK assays were performed as described above but with determination of relative luciferase units (RLUs) using a Perkin Elmer ENVISION Multilabel plate reader (Perkin Elmer).
The ability of Cam-003 to mediate OPK activity against representative non-mucoid strains from clinically relevant O-antigen serotypes and against mucoid P. aeruginosa strains which were derived from cystic fibrosis patients was evaluated.

PAO1ΔpslA = assay: OPK assay, Psl-deficient PAO1ΔpslA and complemented strain; assay type: cell-based, Pseudomonas aeruginosa; settings: complemented PAO1ΔpslA in contrast to the mutant; FIGS. 3F, 3G
Protocol: as §1, with “Elmer). […]” for “Elmer).”
This example describes two series of experiments evaluating the ability of PMB-mAb conjugates to promote OPK of P. aeruginosa. In the first experiments (FIGS. 15A-B), conjugate-mediated OPK activity by human HL-60 neutrophil cell line in the presence of rabbit complement was evaluated using P. aeruginosa strains expressing bacterial luciferase as described in Example 2. […] In the second series of experiments, reduction in luminescence following 2 h incubation relative to control lacking mAb was used to determine % killing.

[2] = tested on: P. aeruginosa strain 6077; assay: P. aeruginosa thermal injury model; assay type: in vivo, CF-1 mice; settings: 15 and 5 mg/kg; versus antibody-treated control; FIG. 8E
Protocol: FIG. 8 (A-G): Anti-Psl monoclonal antibodies Cam-003 and WapR-004 are active in a P. aeruginosa keratitis model and thermal injury model. Mice were treated with a control IgG1 antibody or Cam-003 at 45 mg/kg (A, B) or 15 mg/kg (C, D) or PBS or a control IgG1 antibody or Cam-003 at 45 mg/kg or WapR-004 at 45 mg/kg or 15 mg/kg or 5 mg/kg (F, G) 24 hours prior to infection with 6077 (O11-cytotoxic—2×10^6 CFU). Immediately before infection, three 1 mm scratches were made on the left cornea of each animal followed by topical application of P. aeruginosa in a 5 μl inoculum. 24 hours after infection, the corneal pathology scores were calculated followed by removal of the eye for determination of viable CFU. Differences in pathology scores and viable CFU were determined by the Mann-Whitney U-test. (A) P=0.0001, (B) P<0.0001, (C) P=0.0003, (D) P=0.0015. (F) and (G) Cam-003 (45 mg/kg) vs. WapR-004 (45 mg/kg): P=0.018; Cam-003 (45 mg/kg) vs. WapR-004 (15 mg/kg): P=0.0025; WapR-004 (45 mg/kg) vs. WapR-004 (15 mg/kg): P=0.1331; WapR-004 (5 mg/kg) vs. Ctrl: P<0.0001. Results are representative of five independent experiments. (E) Survival analysis from Cam-003 and R347 treated CF-1 mice in a P. aeruginosa thermal injury model after 6077 infection (2×10^5 CFU) (log-rank: R347 vs. Cam-003 15 mg/kg, P=0.0094; R347 vs. Cam-003 5 mg/kg, P=0.0017). […]

Substance: Cam-003: human IgG1 anti-Psl monoclonal antibody, VH SEQ ID NO: 1 and VL SEQ ID NO: 2
- OPK activity [1]: mediated potent OPK of all non-mucoid clinical isolates tested
- ability to mediate opsonic killing (PAO1ΔpslA): restored
- protection (survival) [2]: significant protection

— patent US10370436B2, “Anti-pseudomonas Psl binding molecules and uses thereof” (priority 2011, dated 2019)
